Drawing on ChEMBL document CHEMBL5576093, “Design, synthesis and evaluation of bioactivity of peptidomimetics based on chloroalkene dipeptide isosteres” (Bioorg Med Chem, 2024), this text covers EC50 and inhibition for seven compounds.

As usually defined, the EC50 is the concentration giving half of the maximal effect. By inhibition is commonly meant the drop in the measured response relative to a control, in per cent. A low value points to a response near the control.

SMILES strings stand for the structures.

For assay [1], the target named is C-X-C chemokine receptor type 4 (Homo sapiens, UniProt P61073). Briefly: Antagonist activity at CXCR4 (unknown origin). Type of assay: functional.
Chain of C-X-C chemokine receptor type 4 (P61073 whole entry, the tested form may be a part): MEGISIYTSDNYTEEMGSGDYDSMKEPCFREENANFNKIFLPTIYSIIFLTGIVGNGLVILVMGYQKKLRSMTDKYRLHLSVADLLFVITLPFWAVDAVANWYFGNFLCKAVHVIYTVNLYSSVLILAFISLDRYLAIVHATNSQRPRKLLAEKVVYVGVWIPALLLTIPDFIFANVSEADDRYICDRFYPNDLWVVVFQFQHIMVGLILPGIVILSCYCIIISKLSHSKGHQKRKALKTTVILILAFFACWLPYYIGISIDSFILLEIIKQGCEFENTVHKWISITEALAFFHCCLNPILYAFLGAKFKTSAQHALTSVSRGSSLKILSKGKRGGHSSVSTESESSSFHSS
Assay [2] has as its target Amyloid-beta precursor protein (Homo sapiens) (UniProt P05067). Briefly: Inhibition of amyloid-beta (1 to 42 residues) (unknown origin) aggregation at 20 uM incubated for 6 hrs by ThT fluorescence based spectrofluorimetric analysis relative to control.
For assay [3] the target is unchanged. In words: Inhibition of amyloid-beta (1 to 42 residues) (unknown origin) aggregation at 10 uM incubated for 6 hrs by ThT fluorescence based spectrofluorimetric analysis relative to control.

Chain of Amyloid-beta precursor protein (Homo sapiens) (P05067 whole entry, the tested form may be a part): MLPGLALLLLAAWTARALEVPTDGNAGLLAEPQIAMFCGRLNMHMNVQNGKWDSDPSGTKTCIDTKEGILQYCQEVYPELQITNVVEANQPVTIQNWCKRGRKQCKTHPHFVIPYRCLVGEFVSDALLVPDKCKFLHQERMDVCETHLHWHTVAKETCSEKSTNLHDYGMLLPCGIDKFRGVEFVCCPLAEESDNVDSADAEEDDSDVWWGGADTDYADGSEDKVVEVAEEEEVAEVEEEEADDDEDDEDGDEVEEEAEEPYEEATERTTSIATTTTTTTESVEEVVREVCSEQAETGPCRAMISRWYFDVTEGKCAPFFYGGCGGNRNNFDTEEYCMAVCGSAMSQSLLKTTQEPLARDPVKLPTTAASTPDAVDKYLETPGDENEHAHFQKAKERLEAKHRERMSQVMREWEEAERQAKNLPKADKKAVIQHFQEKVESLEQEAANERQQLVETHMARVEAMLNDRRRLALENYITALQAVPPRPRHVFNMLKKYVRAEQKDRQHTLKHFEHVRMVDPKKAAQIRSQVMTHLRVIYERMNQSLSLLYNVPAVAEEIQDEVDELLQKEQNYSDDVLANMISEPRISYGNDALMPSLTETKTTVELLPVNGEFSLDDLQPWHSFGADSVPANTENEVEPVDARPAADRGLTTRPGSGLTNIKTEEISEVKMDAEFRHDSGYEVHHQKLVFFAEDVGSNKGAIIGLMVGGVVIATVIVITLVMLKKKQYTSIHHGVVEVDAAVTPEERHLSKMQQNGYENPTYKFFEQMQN

In the case of `N=C(N)NCCC[C@@H]1NC(=O)[C@@H](Cc2ccc(O)cc2)NC(=O)CNC(=O)[C@H](Cc2ccc3ccccc3c2)NC(=O)[C@H](CCCNC(=N)N)/C=C/1F`, in assay [1], the EC50 is 1780 nM. `O=c1c(O)c(-c2ccc(O)cc2O)oc2cc(O)cc(O)c12`: the inhibition in assay [2] was 36%. Take `N=C(N)NCCC[C@H]1/C=C/[C@@H](CCCNC(=N)N)C(=O)N[C@@H](Cc2ccc3ccccc3c2)C(=O)NCC(=O)N[C@H](Cc2ccc(O)cc2)C(=O)N1`: the response in assay [1] was half-maximal at 1460 nM (EC50). `CC(C)C[C@H]1NC(=O)[C@H](CCCCN)NC(=O)[C@H](Cc2ccccc2)NC(=O)[C@@H](Cc2ccccc2)N/C=C(\Cl)C(=O)[C@H](C(C)C)NC1=O`: the inhibition in assay [3] came out at 30.1%; in assay [2], 24.6%. Regarding `CC(C)C[C@H](NC(=O)[C@@H](N)CCCCN)C(=O)N[C@H](C(=O)/C(Cl)=C/N[C@@H](Cc1ccccc1)C(=O)N[C@@H](Cc1ccccc1)C(=O)O)C(C)C`, in assay [2], the inhibition was found to be 79.6%. Still for that read-out and setting: to `CC(C)C[C@H](NC(=O)[C@@H](N)CCCCN)C(=O)N[C@H](C(=O)N[C@@H](Cc1ccccc1)C(=O)N[C@@H](Cc1ccccc1)C(=O)O)C(C)C` belongs 90.2%. Take `CC(C)C[C@@H]1NC(=O)[C@@H](CCCCN)NC(=O)[C@@H](Cc2ccccc2)NC(=O)[C@H](Cc2ccccc2)NC(=O)[C@@H](C(C)C)NC1=O`: the inhibition in assay [3] stood at 77.9%; in assay [2], 20.3%.
